System: endotoxin
Assay: Protection of mice against lethal endotoxin challenge
Type: in vivo
Conditions: compared with lipid X as reported in the literature
Method: The lethal dose of E. coli endotoxin was determined both for the intravenous and for the intraperitoneal challenge. […] (It is important to standardize each lot of endotoxin with each lot of mice.) To determine the approximate dose of lipid A derivative needed to protect against a lethal challenge of endotoxin, mice are pretreated with the lipid A derivative intraperitoneally 2 hours before challenge with 1500 μg of endotoxin, which is 3 times the LD100 dose. Pretreatment of mice with the lipid A derivative appeared to prolong the time to death.

Q: With `CCCCCCC=CCCCCCC(=O)OC(CCCCCCCCCCC)CC(=O)NC1C(OCC2OC(OP(=O)(O)O)C(NC(=O)CC(=O)CCCCCCCCCCC)C(OC(=O)CC(O)CCCCCCC)C2O)OC(CO)C(OP(=O)(O)O)C1OC(=O)CC(O)CCCCCCC` (stereo not shown) [DPLA] as the compound, how does the “protection of mice against a lethal dose of endotoxin” value read?
A: more effective than lipid X

From US5158939A, “Method of stimulating the immune systems of animals and compositions useful therefor” (priority 1990, dated 1992)
